Reference: publication PMC7558026, “Exploring and applying the substrate promiscuity of a C-glycosyltransferase in the chemo-enzymatic synthesis of bioactive C-glycosides” (Nature Communications, 2020)
Numbering of substitutions follows the chain as printed. Values joined by “and” are separate entries in the source; they are usually repeats but may differ in a detail not shown here. Equal entries are not always repeated.

Tests used:
[1] = target: T1, SGLT2 (Homo sapiens, UniProt P31639); assay: 1-NBDG uptake in HEK293 cells stably expressing SGLT2; assay type: cell-based; conditions: HEK293, compound at 10 μM; triplicate; read-out: SGLT2 inhibitory rates
T1 construct: Human full-length SGLT2 cDNA (NM_003041.3) was synthesized; expressed in transfected cells; host or cells: HEK293, retroviral transduction with pMSCVpuro-SGLT2, puromycin selected
T1 sequence (P31639 1-672): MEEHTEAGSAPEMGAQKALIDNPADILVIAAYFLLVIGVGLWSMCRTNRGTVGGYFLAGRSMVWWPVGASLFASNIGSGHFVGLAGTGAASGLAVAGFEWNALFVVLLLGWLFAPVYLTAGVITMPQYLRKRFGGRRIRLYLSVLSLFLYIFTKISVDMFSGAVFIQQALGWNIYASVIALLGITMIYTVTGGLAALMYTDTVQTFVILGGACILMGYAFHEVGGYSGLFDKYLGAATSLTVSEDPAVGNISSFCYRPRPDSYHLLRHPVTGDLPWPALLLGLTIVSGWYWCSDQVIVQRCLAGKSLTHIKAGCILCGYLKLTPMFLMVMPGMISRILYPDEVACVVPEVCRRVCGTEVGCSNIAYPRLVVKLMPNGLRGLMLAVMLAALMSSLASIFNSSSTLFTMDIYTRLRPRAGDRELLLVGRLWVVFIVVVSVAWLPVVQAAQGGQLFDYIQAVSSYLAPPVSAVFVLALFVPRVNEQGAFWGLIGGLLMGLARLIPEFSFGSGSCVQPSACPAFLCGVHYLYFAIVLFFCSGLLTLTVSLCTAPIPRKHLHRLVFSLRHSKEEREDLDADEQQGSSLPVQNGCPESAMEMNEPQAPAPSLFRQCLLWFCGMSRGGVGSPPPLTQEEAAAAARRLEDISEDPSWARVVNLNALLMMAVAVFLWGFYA

[2] = target: T2, AbCGT V183E (Aloe vera, UniProt A0A7G9P699, V183E); assay: Glycosyltransferase activity of AbCGT variant V183E; assay type: biochemical, Aloe barbadensis
T2 sequence (A0A7G9P699 1-470 V183E): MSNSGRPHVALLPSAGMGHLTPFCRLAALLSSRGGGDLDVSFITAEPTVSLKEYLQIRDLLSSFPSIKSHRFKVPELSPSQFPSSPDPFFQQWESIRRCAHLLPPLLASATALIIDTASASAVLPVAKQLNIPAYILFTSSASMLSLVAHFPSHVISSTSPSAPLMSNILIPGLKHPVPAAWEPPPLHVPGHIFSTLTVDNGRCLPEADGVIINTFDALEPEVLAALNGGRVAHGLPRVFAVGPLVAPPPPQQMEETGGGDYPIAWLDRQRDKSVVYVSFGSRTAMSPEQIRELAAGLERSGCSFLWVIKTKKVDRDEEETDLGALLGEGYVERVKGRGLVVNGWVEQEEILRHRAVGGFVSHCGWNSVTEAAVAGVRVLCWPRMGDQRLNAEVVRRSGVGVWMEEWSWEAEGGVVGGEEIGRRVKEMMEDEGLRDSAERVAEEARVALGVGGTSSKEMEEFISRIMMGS
Description: (§1) The reaction mixture contained 0.5 mM sugar donors (1.0 mM for di-glycosylation), 0.25 mM aglycons, 50 mM Tris-HCl (pH 7.4), and 50‒100 μg of purified AbCGT in a final volume of 100 μL. Due to the instability of some acceptors in the buffer of pH 11.0, the reactions were performed under the physiological conditions (pH 7.4, 30 °C) to compare the catalytic activities of AbGT27 with different substrates under the same conditions. The reactions were performed at 30 °C for up to 12 h and terminated by the addition of 200 μL of ice-cold methanol. Subsequently, samples were centrifuged at 15,000 × g for 30 min to collect the supernatant, and aliquots were analyzed by HPLC-UV/ESIMS. HPLC analysis was performed on a Shiseido CAPCELL PAK C18 MG III column (250 mm × 4.6 mm I.D., 5 μm, Shiseido Co., Ltd., Japan) at a flow rate of 1 mL min^‒1. The mobile phase was a gradient elution of solvents A (0.1% formic acid aqueous solution) and B (methanol). The gradient programs were used for the analysis of the reactions (Supplementary Table 6). The conversion rates of the enzyme reactions were calculated from peak areas of glycosylated products and substrates as analyzed by HPLC. To facilitate inferential statistical analysis, three parallel assays were routinely performed; the means ± SD from triplicate analyses are reported here.
(§2) Site-saturation mutagenesis of AbCGT at residue 183 was performed by PCR using pET28a-AbCGT as a template and the corresponding degenerate primers, which are listed in Supplementary Table 5. PCR products were purified and transformed into Trans1-T1 (DE3) E. coli. The sequences of pET28a-AbCGT mutants were confirmed by sequencing, and transformed into Transetta (DE3) E. coli for heterologous expression following protein purification.

[3] = target: AbCGT (Aloe vera, UniProt A0A7G9P699); assay: Glycosyltransferase activity assay, purified AbCGT (wild type) with aglycon acceptors and UDP-Glc; assay type: biochemical, Aloe barbadensis; conditions: for conversion rates, O,N,S-glycosylation / conversion rates, di-C-glycosylation / conversion rates, mono-C-glycosylation: aglycon acceptor with UDP-Glc, pH 7.4, 30 °C, up to 12 h, Reaction-1 to -3
Description: as §1, with “Due” for “The reaction mixture contained 0.5 mM sugar donors (1.0 mM for di-glycosylation), 0.25 mM aglycons, 50 mM Tris-HCl (pH 7.4), and 50‒100 μg of purified AbCGT in a final volume of 100 μL. Due”, “HPLC analysis was performed on a Shiseido CAPCELL PAK C18 MG III column (250 mm × 4.6 mm I.D., 5 μm, Shiseido Co., Ltd., Japan) at a flow rate of 1 mL min^‒1. The mobile phase was a gradient elution of solvents A (0.1% formic acid aqueous solution) and B (methanol).” left out

[4] = target: T3, AbCGT V183D (Aloe vera, UniProt A0A7G9P699, V183D); assay: Glycosyltransferase activity of AbCGT variant V183D; assay type: biochemical, Aloe barbadensis
T3 sequence (A0A7G9P699 1-470 V183D): T2 sequence (A0A7G9P699 1-470 V183E) with E183D
Description: as §1, §2

Sequence of AbCGT (A0A7G9P699 entry or part of it): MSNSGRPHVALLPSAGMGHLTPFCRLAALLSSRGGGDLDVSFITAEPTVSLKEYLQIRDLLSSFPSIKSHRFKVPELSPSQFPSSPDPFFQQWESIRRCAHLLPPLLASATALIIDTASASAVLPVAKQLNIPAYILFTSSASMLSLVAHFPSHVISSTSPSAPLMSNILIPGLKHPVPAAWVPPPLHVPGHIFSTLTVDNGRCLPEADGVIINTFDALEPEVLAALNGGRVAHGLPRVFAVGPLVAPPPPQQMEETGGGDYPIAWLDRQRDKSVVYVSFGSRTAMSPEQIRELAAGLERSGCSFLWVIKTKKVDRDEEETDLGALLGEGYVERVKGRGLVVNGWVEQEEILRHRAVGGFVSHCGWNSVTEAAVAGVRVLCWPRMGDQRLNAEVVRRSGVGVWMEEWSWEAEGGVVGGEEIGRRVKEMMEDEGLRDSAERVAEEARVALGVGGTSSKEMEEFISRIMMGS

SMILES: OCC1OC(c2c(O)cc(O)c(CCc3ccc(O)cc3)c2O)C(O)C(O)C1O (centres unmarked) [Compound 51a]
- inhibition at 10 µM [1]: 18.6%

SMILES: OCC1OC(c2c(O)cc(O)c(CCc3c[nH]c4ccccc34)c2O)C(O)C(O)C1O (centres unmarked) [Compound 43a]
- inhibition at 10 µM [1]: 20.4%

SMILES: OCC1OC(c2c(O)cc(O)c(CCc3ccc4c(c3)CCO4)c2O)C(O)C(O)C1O (centres unmarked) [Compound 52a]
- inhibition at 10 µM [1]: 36.7%

SMILES: OCC1OC(c2c(O)cc(O)c(Cc3ccc(F)cc3)c2O)C(O)C(O)C1O (centres unmarked) [Compound 48a]
- inhibition at 10 µM [1]: 85.4%

SMILES: O=C(CCc1ccc(O)cc1)c1c(O)cc(O)c([C@@H]2O[C@H](CO)[C@@H](O)[C@H](O)[C@H]2O)c1O [Compound 17a]
- inhibition at 10 µM [1]: 52.2%

SMILES: OCC1OC(c2c(O)cc(O)c(CCc3ccccc3)c2O)C(O)C(O)C1O (centres unmarked) [Compound 39a]
- inhibition at 10 µM [1]: 23.6%

SMILES: CC(=O)c1ccc(O)cc1O [Compound 6, 2,4-dihydroxyacetophenone]
- V183E/yield of O-glycoside(%) ([2]; reaction-1): 0%
- V183E/yield of C-glycoside(%) ([2]; reaction-2): 5.5%
- V183E/yield of O-glycoside(%) ([2]; reaction-2): 0%
- V183E/yield of C-glycoside(%) ([2]; reaction-3): 6.8%
- V183E/yield of O-glycoside(%) ([2]; reaction-3): 0%
- conversion rates, O,N,S-glycosylation [3]: 43.8% and 46.5% and 44.5%
- conversion rates, di-C-glycosylation [3]: 0%
- conversion rates, mono-C-glycosylation [3]: 27.1% and 26.5% and 27.4%
- WT/yield of C-glycoside(%) ([3]; reaction-1): 29.2%
- WT/yield of O-glycoside(%) ([3]; reaction-1): 43.5%
- WT/yield of C-glycoside(%) ([3]; reaction-2): 25.9%
- WT/yield of O-glycoside(%) ([3]; reaction-2): 45.7%
- WT/yield of C-glycoside(%) ([3]; reaction-3): 26%
- WT/yield of O-glycoside(%) ([3]; reaction-3): 47%
- V183D/yield of C-glycoside(%) ([4]; reaction-1): 13.9%
- V183D/yield of O-glycoside(%) ([4]; reaction-1): 1%
- V183D/yield of C-glycoside(%) ([4]; reaction-2): 12.3%
- V183D/yield of O-glycoside(%) ([4]; reaction-2): 1.5%
- V183D/yield of C-glycoside(%) ([4]; reaction-3): 13.1%
- V183D/yield of O-glycoside(%) ([4]; reaction-3): 1.4%

SMILES: OCC1OC(c2c(O)cc(O)c(Cc3ccsc3)c2O)C(O)C(O)C1O (centres unmarked) [Compound 42a]
- inhibition at 10 µM [1]: 68.5%

SMILES: COc1ccc(Cc2c(O)cc(O)cc2O)cc1OC [Compound 20]
- inhibition at 10 µM [1]: 0.2%
- conversion rates, O,N,S-glycosylation [3]: 0%
- conversion rates, di-C-glycosylation [3]: 0%
- conversion rates, mono-C-glycosylation [3]: 100%

SMILES: O=C(CCc1ccc(O)cc1)c1c(O)c([C@@H]2O[C@H](CO)[C@@H](O)[C@H](O)[C@H]2O)c(O)c([C@@H]2O[C@H](CO)[C@@H](O)[C@H](O)[C@H]2O)c1O [Compound 17aa]
- inhibition at 10 µM [1]: 2.8%
